Measurements taken from US20230279020A9, “CARM1 INHIBITORS AND USES THEREOF” (Epizyme, Inc., priority 2013, published 2023).

Columns and labels:
Human CARM1 (PRMT4) = Human CARM1 (PRMT4) (Homo sapiens (Human), UniProt Q86X55); test: CARM1 enzyme assay on peptide substrate (3H-SAM Flashplate); conditions: Biochemical potencies, classification codes; read-out: Biochem IC50
[1] = test system: asymmetric di-methyl PABP1 in RKO cells; test: RKO methylation assay, In Cell Western (ICW) for asymmetric di-methyl PABP1; type: cell-based; conditions: Cellular potencies, PABP1me2a ICW
Excerpt: RKO adherent cells were purchased from ATCC (American Type Culture Collection), Manassas, Va., USA. DMEM/Glutamax medium, penicillin-streptomycin, heat inactivated fetal bovine serum, 0.05% trypsin and D-PBS were purchased from Life Technologies, Grand Island, N.Y., USA. Odyssey blocking buffer, 800CW goat anti-rabbit IgG (H+L) antibody, and Licor Odyssey infrared scanner were purchased from Licor Biosciences, Lincoln, Nebr., USA. Asymmetric di-methyl PABP1 antibody was purchased from Cell Signaling Technology, Danvers, Mass., USA. Methanol was purchased from VWR, Franklin, Mass., USA. 10% Tween 20 was purchased from KPL, Inc., Gaithersburg, Md., USA. Paraformaldehyde (PFA) was purchased from EM Sciences. DRAQ5 was purchased from Biostatus Limited, Leicestershire, UK.
RKO adherent cells were maintained in growth medium (DMEM/Glutamax medium supplemented with 10% v/v heat inactivated fetal bovine serum and 100 units/mL penicillin-streptomycin) and cultured at 37° C. under 5% CO2.
Cell treatment, In Cell Western (ICW) for detection of asymmetric di-methyl PABP1 and DNA content: RKO cells were seeded in assay medium at a concentration of 30,000 cells per mL to a poly-D-lysine coated 384 well culture plate (BD Biosciences 356697) with 50 μL per well. Compound (100 nL) from a 96-well source plate was added directly to 384 well cell plate. Plates were incubated at 37° C., 5% CO2 for 48 hours. After two days of incubation, plates were brought to room temperature outside of the incubator for ten minutes and blotted on paper towels to remove cell media. Cells were fixed for 20 minutes at room temperature by adding 50 ul of 8% PFA followed by aspiration of supernatant with the Biotek EL406 plate washer. Cells were then permeabilized by addition of 50 μL of ice cold 100% methanol directly to each well and incubated for 30 min at room temperature. After 30 min, plates were transferred to a Biotek EL406 plate washer and washed 2 times with 100 μL per well of wash buffer (1×PBS). Next 60 μL per well of Odyssey blocking buffer (Odyssey Buffer with 0.1% Tween 20 (v/v)) were added to each plate and incubated 1 hour at room temperature. Blocking buffer was removed and 20 μL per well of primary antibody was added (asymmetric-methyl PABP1) diluted 1:400 in Odyssey buffer with 0.1% Tween 20 (v/v)) and plates were incubated overnight (16 hours) at 4° C. Plates were washed 5 times with 100 μL per well of wash buffer. Next 20 μL per well of secondary antibody was added (1:800 800CW goat anti-rabbit IgG (H+L) antibody, 1:2000 DRAQ5 in Odyssey buffer with 0.1% Tween 20 (v/v)) and incubated for 1 hour at room temperature. The plates were washed 5 times with 100 μL per well wash buffer then 2 times with 100 μL per well of water. Plates were allowed to dry at room temperature then imaged on the Licor Odyssey machine which measures integrated intensity at 700 nm and 800 nm wavelengths. Both 700 and 800 channels were scanned.
First, the ratio for each well was determined by:
Each plate included fourteen control wells of DMSO only treatment (minimum inhibition) as well as fourteen control wells for maximum inhibition treated with 20 μM of a reference compound. The average of the ratio values for each control type was calculated and used to determine the percent […] for each test well in the plate. Reference compound was serially diluted three-fold in DMSO for a total of nine test concentrations, beginning at 20 μM.
Percent inhibition was determined and IC50 curves were generated using triplicate wells per concentration of compound.

NCI-H929 = test: Human myeloma cell line 14-day proliferation assay (NCI-H929); type: cell-based; conditions: NCI-H929 Human Multiple Myeloma cell line, varying doses, FIG. 1A
Protocol: (§1) Human Multiple Myeloma cell lines NCI-H929 (FIG. 1A) and U266B1 (FIG. 1B) were treated with varying doses of 304-1a (medium grey data points), 23-3 (light grey data points), and 113-3 (black data points) in a 14-day proliferation assay. At the end of the experiment, total cell number was determined for each cell line for different doses of 304-1a, 23-3, and 113-3.

U266B1 = test: Human myeloma cell line 14-day proliferation assay (U266B1); type: cell-based; conditions: U266B1 Human Multiple Myeloma cell line, varying doses, FIG. 1B
Protocol: as §1

Sequence of Human CARM1 (PRMT4) (Q86X55 other isoform, or with tags, fused parts or gaps isoform Q86X55-1): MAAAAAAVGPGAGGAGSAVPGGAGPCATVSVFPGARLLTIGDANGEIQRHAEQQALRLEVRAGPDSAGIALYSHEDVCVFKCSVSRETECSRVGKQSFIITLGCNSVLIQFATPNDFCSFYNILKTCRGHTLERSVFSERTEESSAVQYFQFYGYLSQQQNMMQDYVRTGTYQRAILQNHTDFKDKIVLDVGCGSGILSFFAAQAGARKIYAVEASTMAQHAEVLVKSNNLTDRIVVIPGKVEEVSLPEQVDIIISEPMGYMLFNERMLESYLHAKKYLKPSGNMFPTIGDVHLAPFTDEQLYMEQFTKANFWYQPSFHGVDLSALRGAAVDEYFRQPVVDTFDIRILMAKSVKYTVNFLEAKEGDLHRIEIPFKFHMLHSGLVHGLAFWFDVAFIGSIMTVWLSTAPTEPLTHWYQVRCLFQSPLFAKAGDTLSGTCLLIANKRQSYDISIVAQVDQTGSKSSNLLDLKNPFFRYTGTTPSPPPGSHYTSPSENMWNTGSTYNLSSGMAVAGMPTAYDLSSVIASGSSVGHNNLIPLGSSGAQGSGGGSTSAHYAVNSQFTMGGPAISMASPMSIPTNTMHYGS

Row | IC50 (Human CARM1 (PRMT4)) [nM] | Compound | other results
1 | < 100 | CNCC(O)COc1cccc(-c2nc(NC3CCOC3=O)cc(-c3c(C)noc3C)n2)c1 (stereo not drawn) [Example 23-1a] | IC50 ([1]; Homo sapiens, RKO): 10000 to 20000 nM
2 | < 100 | CCOC(=O)N1CCOC[C@@H]1CNc1nc(-c2cc(OC[C@H](O)CNC)ccc2Cl)nc(-c2c(C)noc2C)c1C [Example 23-3] | cell proliferation (total cell number) (NCI-H929): decreased the proliferation; cell proliferation (total cell number) (U266B1): decreased the proliferation
3 | – | CNCC(O)COc1cccc(-c2nc(NC3CCOC3=O)cc(-c3c(C)noc3C)n2)c1 (stereo not drawn) [Example 24-1a] | IC50 [1]: 10000 to 20000 nM
4 | < 100 | CNCC(O)COc1cccc(-c2nc(-c3c(C)noc3C)cc(N3C[C@@H]4C[C@H]3CN4C(=O)OC)n2)c1 (stereo partly drawn) [Example 105-1a] | IC50 [1]: 5000 to 10000 nM
5 | < 100 | CNCC(O)COc1cccc(-c2nc(-c3c(C)noc3C)c(C)c(N3CCO[C@H](CNC)C3)n2)c1 (stereo partly drawn) [Example 129-1a] | IC50 [1]: 10000 to 20000 nM
6 | – | CNCC(O)COc1cccc(-c2nc(N[C@@H]3CCOC3)c(C)c(N3CCC(n4c(C)nnc4C)CC3)n2)c1 (stereo partly drawn) [Example 390-1a] | IC50 ([1]; Homo sapiens, RKO): 5000 to 10000 nM
7 | – | CNCC(O)COc1cccc(-c2nc(N[C@@H]3CCOC3)c(C)c(-c3ccc4nccn4c3)n2)c1 (stereo partly drawn) [Example 445-1a] | IC50 ([1]; Homo sapiens, RKO): 10000 to 20000 nM
8 | – | CCS(=O)(=O)n1cc(-c2cc(N(C)C3CCOCC3)nc(-c3cccc(OCC(O)CNC)c3)n2)c2cncnc21 (stereo not drawn) [Example 484-1a] | IC50 ([1]; Homo sapiens, RKO): < 5000 nM
9 | 100 to 1000 | CNCC(O)COc1cccc(-c2nc(C3CCN(C(=O)N(C)C)[C@@H](C)C3)cc(N(C)C3CCOCC3)n2)c1 (stereo partly drawn) [Example 509-1a] | IC50 ([1]; Homo sapiens, RKO): 5000 to 10000 nM
10 | < 100 | CNCC(O)COc1cccc(-c2nc(N3CC4CCC(C3)O4)cc(N(C)C3CCOCC3)n2)c1 (stereo not drawn) [Example 566-1a] | –
11 | < 100 | CNCC(O)COc1cccc(-c2nc(N(C)C3CCOCC3)c(C)c(N3CCNC[C@@H]3C)n2)c1 (stereo partly drawn) [Example 567-1a] | –
12 | < 100 | CNCC(O)COc1cccc(-c2nc(N(C)C3CCOCC3)cc(-n3nc(C)cc3C)n2)c1 (stereo not drawn) [Example 568-1a] | –
13 | < 100 | CNCC(O)COc1cccc(-c2nc(-c3sc(C)nc3C)cc(N(C)C3CCOCC3)n2)c1 (stereo not drawn) [Example 569-1a] | –
14 | < 100 | CNCC(O)COc1cccc(-c2nc(-c3cc4ccccc4o3)cc(N(C)C3CCOCC3)n2)c1 (stereo not drawn) [Example 570-1a] | –
15 | < 100 | CNC[C@@H](O)COc1cccc(-c2nc(-c3c[nH]c4ncncc34)cc(N(C)C3CCOCC3)n2)c1 [Example 571-1a] | –
16 | < 100 | CNCC(O)COc1cccc(-c2nc(-c3cnc(CO)n3C)cc(N(C)C3CCOCC3)n2)c1 (stereo not drawn) [Example 572-1a] | –
17 | < 100 | CNCC(O)COc1cccc(-c2nc(SC)cc(N(C)C3CCOCC3)n2)c1 (stereo not drawn) [Example 573-1a] | –
18 | < 100 | CNCC(O)COc1cc(Cl)cc(-c2nc(-c3ccncc3)c(C3CC3)c(N(C)C3CCOCC3)n2)c1 (stereo not drawn) [Example 574-1a] | –
19 | < 100 | CNCC(O)COc1cccc(-c2nc(N3CCNC(=O)C3)cc(N(C)C3CCOCC3)n2)c1 (stereo not drawn) [Example 575-1a] | –
20 | < 100 | CNCC(O)COc1cccc(-c2nc(N3CCN4C(=O)OC[C@@H]4C3)cc(N(C)C3CCOCC3)n2)c1 (stereo partly drawn) [Example 576-1a] | –
21 | < 100 | CNCC(O)COc1cc(Cl)cc(-c2nc(C(=O)N(C)CC3CCOCC3)cc(N(C)C3CCOCC3)n2)c1 (stereo not drawn) [Example 577-1a] | –
22 | < 100 | CNCC(O)COc1cccc(-c2nc(N3CCN(CCF)[C@@H](C)C3)cc(N(C)C3CCOCC3)n2)c1 (stereo partly drawn) [Example 578-1a] | –
23 | < 100 | CNCC(O)COc1cccc(-c2nc(N3CCC4(CCO4)CC3)cc(N(C)C3CCOCC3)n2)c1 (stereo not drawn) [Example 579-1a] | –
24 | < 100 | CNCC(O)COc1cccc(-c2nc(-c3cncn3C)cc(N(C)C3CCOCC3)n2)c1 (stereo not drawn) [Example 580-1a] | –

Row | IC50 (Human CARM1 (PRMT4)) [nM] | Compound | other results
25 | < 100 | CNCC(O)COc1cccc(-c2nc(N3CCN(C(=O)OC)[C@@H](C)C3)cc(N(C)C3CCOCC3)n2)c1 (stereo partly drawn) [Example 581-1a] | –
26 | < 100 | CNCC(O)COc1cc(Cl)cc(-c2nc(-c3ccnc(N(C)C)c3)cc(N(C)C3CCOCC3)n2)c1 (stereo not drawn) [Example 609-1a] | –
27 | < 100 | CNCC(O)COc1cc(Cl)cc(-c2nc(-c3cnn(C)c3)cc(N(C)C3CCOCC3)n2)c1 (stereo not drawn) [Example 610-1a] | –
28 | < 100 | CNCC(O)COc1cc(Cl)cc(-c2nc(-c3ccncc3)c(Br)c(N(C)C3CCOCC3)n2)c1 (stereo not drawn) [Example 611-1a] | –
29 | < 100 | CNCC(O)COc1cc(Cl)cc(-c2nc(-c3cnc4ccccc4n3)c(C)c(N(C)C3CCOCC3)n2)c1 (stereo not drawn) [Example 612-1a] | –
30 | < 100 | CNCC(O)COc1cccc(-c2nc(-c3ccc(C(F)(F)F)nc3)cc(N(C)C3CCOCC3)n2)c1 (stereo not drawn) [Example 613-1a] | –
31 | < 100 | CNCC(O)COc1cc(Cl)cc(-c2nc(-c3ccc(N(C)C)nc3)c(C)c(N(C)C3CCOCC3)n2)c1 (stereo not drawn) [Example 614-1a] | –
32 | < 100 | CNCC(O)COc1cccc(-c2nc(C3CCNCC3)cc(N(C)C3CCOCC3)n2)c1 (stereo not drawn) [Example 615-1a] | –
33 | < 100 | CNCC(O)COc1cccc(-c2nc(-c3cccc4ncccc34)cc(N(C)C3CCOCC3)n2)c1 (stereo not drawn) [Example 616-1a] | –
34 | < 100 | CNCC(O)COc1cc(Cl)cc(-c2nc(-c3cn[nH]c3)c(C)c(N(C)C3CCOCC3)n2)c1 (stereo not drawn) [Example 617-1a] | –
35 | < 100 | CNCC(O)COc1cc(Cl)cc(-c2nc(N(C)C3CCOCC3)c(C)c(-n3cccn3)n2)c1 (stereo not drawn) [Example 618-1a] | –
36 | < 100 | C=C(C)c1cc(N(C)C2CCOCC2)nc(-c2cc(Cl)cc(OCC(O)CNC)c2)n1 (stereo not drawn) [Example 619-1a] | –
37 | < 100 | CNCC(O)COc1cccc(-c2nc(-c3cnc4nccn4c3)cc(N(C)C3CCOCC3)n2)c1 (stereo not drawn) [Example 620-1a] | –
38 | < 100 | CNCC(O)COc1cccc(-c2nc(C3=CCCC3)cc(N(C)C3CCOCC3)n2)c1 (stereo not drawn) [Example 621-1a] | –
39 | < 100 | CNCC(O)COc1cccc(-c2nc(-c3cccc(C#N)c3)cc(N(C)C3CCOCC3)n2)c1 (stereo not drawn) [Example 622-1a] | –
40 | < 100 | CNCC(O)COc1cc(Cl)cc(-c2nc(C(=O)OC)cc(N(C)C3CCOCC3)n2)c1 (stereo not drawn) [Example 623-1a] | –
41 | < 100 | CNCC(O)COc1cccc(-c2nc(-c3nc(C)cs3)cc(N(C)C3CCOCC3)n2)c1 (stereo not drawn) [Example 624-1a] | –
42 | < 100 | CNCC(O)COc1cc(Cl)cc(-c2nc(-c3ccncc3)cc(N3CCOCC3)n2)c1 (stereo not drawn) [Example 632-1a] | –
43 | < 100 | CNCC(O)COc1cccc(-c2nc(NC3CCOCC3)c(C)c(N3CCN(C(C)C)CC3)n2)c1 (stereo not drawn) [Example 644-1a] | –
44 | < 100 | CNCC(O)COc1cccc(-c2nc(NC3CCOCC3)cc(-c3ccc4c(c3)OCCO4)n2)c1 (stereo not drawn) [Example 657-1a] | –
45 | < 100 | CNCC(O)COc1cccc(-c2nc(NC3CCOCC3)cc(-c3ccc(OC)c(OC)c3)n2)c1 (stereo not drawn) [Example 658-1a] | –
46 | < 100 | CNCC(O)COc1cc(Cl)cc(-c2nc(NC3CCNCC3)cc(-c3ccncc3)n2)c1 (stereo not drawn) [Example 665-1a] | –
47 | > 10000 | CNCC(O)COc1cccc(-c2nc(C(=O)NC3CCOCC3)c(C)c(C(=O)NC3CCOCC3)n2)c1 (stereo not drawn) [Example 677-1a] | –
48 | < 100 | CCN(CC)c1nc(-c2cccc(OCC(O)CNC)c2)nc(N2CCOCC2)c1C (stereo not drawn) [Example 682-1a] | –

Row | Compound | IC50 (Human CARM1 (PRMT4)) [nM] | other results
49 | CNC[C@@H](O)COc1cccc(-c2nc(N3CC4(CCNCC4)c4ccccc43)cc(N(C)C3CCOCC3)n2)c1 [Example 558-1a] | < 100 | IC50 [1]: 10000 to 20000 nM
50 | CNCC(O)COc1cccc(-c2nc(-c3ccncc3)cc(N(C)C3CCNCC3)n2)c1 (stereo not drawn) [Example 669-1a] | < 100 | –
